Measured values: PMC6928678, “Simplified Head-to-Tail Cyclic Polypeptides as Biomaterial-Associated Antimicrobials with Endotoxin Neutralizing and Anti-Inflammatory Capabilities” (International Journal of Molecular Sciences, 2019)
Where a SMILES comes first, the peptide text is derived from it.

Tests used:
[1] = tested on: TNF-α production in RAW264.7 cells; assay: LPS-stimulated TNF-α production (ELISA); assay type: cell-based, mouse
Procedure: Figure 11 The inhibitory effects of OIR3, IR3, DIR3 and GS on LPS-stimulated TNF-α production in RAW264.7 cells. The levels of TNF-α in the […] were determined by ELISA using a commercial kit for mouse TNF-α. Data shown are the mean ± SD of three independent experiments.
LPS-activated inflammatory responses are always accompanied by the production of inflammatory cytokines, such as tumor necrosis factor-alpha (TNF-α). Briefly, 2 × 10^5 cells/well RAW264.7 cells were plated in 96-well plates and stimulated with LPS (100 ng/mL) in the absence or presence of the peptides (1–32 μM) for 18 h at 37 °C. The levels of TNF-α were determined using an ELISA kit (Boster, Wuhan, China) in accordance with the manufacturer’s instructions. TNF-α was measured by determining the absorbance at 540 nm.

E. coli UB1005 = assay: Outer membrane permeability assay (NPN uptake); assay type: cell-based; details: E. coli UB1005, concentrations greater than 4 μM; relative to 10 μg/mL polymyxin B
Procedure: Figure 4 Outer membrane permeabilization assays of the engineered peptides. A 2 mL volume of E. coli UB1005 cells, diluted to 10^5 CFU/mL in 5 mM sodium HEPES buffer, was added to a quartz cuvette containing NPN to give a final concentration of 10 μM. Aliquots of peptides were added to the cuvette, and the fluorescence was recorded until there was no further increase in fluorescence. Data shown are three independent experiments.
The effect of antimicrobial peptides on the outer leaflet of the cell membrane was examined using the extracellular membrane-sensitive fluorescent dye NPN and the antibiotic-sensitive mutant E. coli UB 1005. […] The background fluorescence was measured (excitation λ = 350 nm, emission λ = 420 nm) with an F-4500 fluorescence spectrophotometer (Hitachi, Tokyo, Japan). […] The fluorescence was recorded in terms of the time needed until there was no further increase in fluorescence after mixing several concentrations (0.5–64 μM) of peptides. […] Values were converted to percent NPN uptake using the following equation:(3) %NPN uptake=Fobs−F0/F100−F0× 100% where Fobs is the observed fluorescence at a given peptide concentration, F0 is the initial fluorescence of NPN in E. coli UB1005 cells and F100 is the fluorescence of NPN in UB1005 cells upon the addition of 10 μg/mL polymyxin B, which had strong outer membrane permeability.

## CC[C@H](C)[C@@H]1NC(=O)[C@H](CCCNC(=N)N)NC(=O)[C@H]([C@@H](C)CC)NC(=O)[C@@H]2CCCN2C(=O)[C@H](CCCNC(=N)N)NC(=O)[C@H]([C@@H](C)CC)NC(=O)[C@H](CCCNC(=N)N)NC(=O)[C@H]([C@@H](C)CC)NC(=O)[C@H](CCCNC(=N)N)NC(=O)[C@H]([C@@H](C)CC)NC(=O)[C@@H]2CCCN2C(=O)[C@H](CCCNC(=N)N)NC(=O)[C@H]([C@@H](C)CC)NC(=O)[C@H](CCCNC(=N)N)NC1=O [OIR3] (cyclo(IRIRIRPIRIRIRP))
[1]
  inhibition of LPS-stimulated TNF-α expression: more strongly inhibited
E. coli UB1005
  outer membrane permeability (% NPN uptake): more than 70%
